{"source": "patent US7189858B2", "about": "“N-phenyl substituted carbamoyloxyalkyl-azolium derivatives” (Basilea Pharmaceutica AG, priority 1999, dated 2007)", "key": {"[1]": {"details": "rat"}, "Solubility (Table 1)": {"experiment": "Solubility (Table 1)", "details": "solvent a = distilled water"}, "[2]": {"test_system": "FCZ^R - C. albicans UTHS93-2067", "experiment": "Rat systemic mycosis, FCZ^R C. albicans UTHS93-2067", "type": "in vivo", "details": "for ED50: Candida albicans, 336 h, read-out: Rat systemic mycosis ED50 on day 14, FCZ^R - C. albicans UTHS93-2067", "from_the_text": "(§1) Male Fisher rats, strain F344/DuCrj, were employed for experimental infection models such as systemic candidiasis, systemic aspergillosis and pulmonary aspergillosis model. Immunocompetent 4 weeks old rats were used for systemic candidiasis or systemic aspergillosis which occurred after infection with Candida albicans conidia of 5×10^6/rat or with Aspergillus fumigatus conidia of 6×10^5/rat via tail vein. Otherwise for pulmonary aspergillosis model, rats had been immunosuppressed with cortisone acetate treatments prior to infection with 2×10^5/rat intratrachially. Treatments were given twice on the first day and once daily on following 4 days both for systemic and pulmonary aspergillosis (Ib.i.+4q.d.), for systemic candidiasis rats were treated at 0, 4, 24, and 48 h after infection (Ib.i.d.+2q.d.). Effective dose 50% (ED50) values were determined on day 14 after infection."}, "C. albicans CY3003": {"test_system": "C. albicans CY3003", "experiment": "Rat systemic mycosis, C. albicans CY3003", "type": "in vivo", "details": "for ED50: Candida albicans, CY3003, 336 h, read-out: Rat systemic mycosis ED50 on day 14, C. albicans CY3003", "from_the_text": "as §1"}, "Candida albicans": {"test_system": "Candida albicans", "experiment": "Rat systemic candidiasis model (Fluconazole resistance)", "type": "in vivo", "details": "day 14 after infection", "from_the_text": "as §1"}, "Aspergillus fumigatus": {"test_system": "Aspergillus fumigatus", "experiment": "Rat systemic aspergillosis model", "type": "in vivo", "details": "day 14 after infection", "from_the_text": "as §1"}, "A. fumigatus CF1003": {"test_system": "A. fumigatus CF1003", "experiment": "Rat systemic mycosis, A. fumigatus CF1003", "type": "in vivo", "details": "for ED50: Aspergillus fumigatus, CF1003, 336 h, read-out: Rat systemic mycosis ED50 on day 14, A. fumigatus CF1003", "from_the_text": "as §1"}, "[3]": {"type": "in vitro ADME", "details": "human"}, "C. albicans CY1002": {"test_system": "C. albicans CY1002", "experiment": "Rat systemic mycosis, C. albicans CY1002", "type": "in vivo", "details": "for ED50: Candida albicans, CY1002, 336 h, read-out: Rat systemic mycosis ED50 on day 14, C. albicans CY1002", "from_the_text": "as §1"}, "C. parapsilosis KULM219C": {"test_system": "C. parapsilosis KULM219C", "experiment": "Rat systemic mycosis, C. parapsilosis KULM219C", "type": "in vivo", "details": "for ED50: Lodderomyces parapsilosis, KULM219C, 336 h, read-out: Rat systemic mycosis ED50 on day 14, C. parapsilosis KULM219C"}, "C. tropicalis CY5042": {"test_system": "C. tropicalis CY5042", "experiment": "Rat systemic mycosis, C. tropicalis CY5042", "type": "in vivo", "details": "for ED50: Candida tropicalis, CY5042, 336 h, read-out: Rat systemic mycosis ED50 on day 14, C. tropicalis CY5042"}}, "note": "Like-named read-outs stand apart in the source and are kept apart here."}
{"compound": "CC(=O)OCc1ccccc1N(C)C(=O)OC[n+]1cnn(C[C@](O)(c2cc(F)ccc2F)[C@@H](C)c2nc(-c3ccc(C#N)cc3)cs2)c1.[Cl-]", "note": "[Example 5, [[N-methyl-N-2-(acetoxymethyl)phenyl]carbamoyloxy]methyl-1-[(2R,3R)-2-(2,5-difluorophenyl)-2-hydroxy-3-[4-(4-cyanophenyl)thiazol-2-yl]butyl]-1H-[1,2,4]triazol-4-ium chloride]", "values": [{"measurement": "Conversion (half-life) to (2R,3R)-3-[4-(4-cyanophenyl)thiazol-2-yl)]-2-(2,5-difluorophenyl)-1-(1H-1,2,4-triazol-1-yl)-butan-2-ol (u) in plasma", "setting": "[1]", "result": "<2", "unit": "min in rat plasma"}]}
{"compound": "CC(C)NCc1ccccc1N(C)C(=O)OC(C)[n+]1cnn(C[C@](O)(c2cc(F)ccc2F)[C@@H](C)c2nc(-c3ccc(C#N)cc3)cs2)c1.Cl.[Cl-]", "note": "(stereo partly drawn) [Example 6, 1-[[N-methyl-N-2-(isopropylaminomethyl)phenyl]carbamoyloxy]ethyl-1-[(2R,3R)-2-(2,5-difluorophenyl)-2-hydroxy-3-[4-(4-cyanophenyl)thiazol-2-yl]butyl]-1H-[1,2,4]triazol-4-ium chloride hydrochloride]", "values": [{"measurement": "Solubility", "setting": "Solubility (Table 1)", "result": ">10000", "unit": "µg/mL"}]}
{"compound": "CNCC(=O)OCc1cccnc1N(C)C(=O)OC(C)[n+]1cnn(C[C@](O)(c2cc(F)ccc2F)[C@@H](C)c2nc(-c3ccc(C#N)cc3)cs2)c1.Cl.[Cl-]", "note": "(stereo partly drawn) [Example 7, 1-[[N-methyl-N-3-[(methylamino)acetoxymethyl]pyridin-2-yl]carbamoyloxy)ethyl-1-[(2R,3R)-2-(2,5-difluorophenyl)-2-hydroxy-3-[4-(4-cyanophenyl)thiazol-2-yl]butyl]-1H-[1,2,4]triazol-4-ium chloride hydrochloride]", "values": [{"measurement": "Rat systemic mycosis ED50 on day 14, FCZ^R - C. albicans UTHS93-2067", "setting": "[2]; I.V.", "result": 2.8, "unit": "µmol/kg"}, {"measurement": "Rat systemic mycosis ED50 on day 14, FCZ^R - C. albicans UTHS93-2067", "setting": "[2]; PO.", "result": 7, "unit": "µmol/kg"}, {"measurement": "Rat systemic mycosis ED50 on day 14, C. albicans CY3003", "setting": "C. albicans CY3003; I.V.", "result": 1.6, "unit": "µmol/kg"}, {"measurement": "Rat systemic mycosis ED50 on day 14, C. albicans CY3003", "setting": "C. albicans CY3003; PO.", "result": 2.5, "unit": "µmol/kg"}, {"measurement": "ED50, Systemic Fluconazole resistance candidiasis", "setting": "Candida albicans; i.v.", "result": 13.3, "unit": "µmol/kg"}, {"measurement": "ED50, Systemic Fluconazole resistance candidiasis", "setting": "Candida albicans; p.o.", "result": 14.1, "unit": "µmol/kg"}, {"measurement": "ED50, Systemic aspergillosis", "setting": "Aspergillus fumigatus; i.v.", "result": 13.5, "unit": "µmol/kg"}, {"measurement": "ED50, Systemic aspergillosis", "setting": "Aspergillus fumigatus; p.o.", "result": 8.8, "unit": "µmol/kg"}, {"measurement": "Rat systemic mycosis ED50 on day 14, A. fumigatus CF1003", "setting": "A. fumigatus CF1003; I.V.", "result": 11, "unit": "µmol/kg"}, {"measurement": "Rat systemic mycosis ED50 on day 14, A. fumigatus CF1003", "setting": "A. fumigatus CF1003; PO.", "result": 9, "unit": "µmol/kg"}, {"measurement": "Conversion (half-life) to (2R,3R)-3-[4-(4-cyanophenyl)thiazol-2-yl)]-2-(2,5-difluorophenyl)-1-(1H-1,2,4-triazol-1-yl)-butan-2-ol (u) in plasma", "setting": "[3]", "result": "<2", "unit": "min in human plasma"}, {"measurement": "Rat systemic mycosis ED50 on day 14, C. albicans CY1002", "setting": "C. albicans CY1002; I.V.", "result": 4, "unit": "µmol/kg"}, {"measurement": "Rat systemic mycosis ED50 on day 14, C. albicans CY1002", "setting": "C. albicans CY1002; PO.", "result": 4, "unit": "µmol/kg"}, {"measurement": "Rat systemic mycosis ED50 on day 14, C. parapsilosis KULM219C", "setting": "C. parapsilosis KULM219C; I.V.", "result": 7.6, "unit": "µmol/kg"}, {"measurement": "Rat systemic mycosis ED50 on day 14, C. parapsilosis KULM219C", "setting": "C. parapsilosis KULM219C; PO.", "result": 6.5, "unit": "µmol/kg"}, {"measurement": "Rat systemic mycosis ED50 on day 14, C. tropicalis CY5042", "setting": "C. tropicalis CY5042; I.V.", "result": 1, "unit": "µmol/kg"}, {"measurement": "Rat systemic mycosis ED50 on day 14, C. tropicalis CY5042", "setting": "C. tropicalis CY5042; PO.", "result": 1, "unit": "µmol/kg"}]}
{"compound": "CNCC(=O)OCc1cc(F)c(F)cc1N(C)C(=O)OC(C)[n+]1cnn(C[C@](O)(c2cc(F)ccc2F)[C@@H](C)c2nc(-c3ccc(C#N)cc3)cs2)c1.Cl.[Cl-]", "note": "(stereo partly drawn) [Example 7.3., 1-[[N-methyl-N-2-(methylamino)acetoxymethyl-4,5-difluorophenyl]carbamoyloxy]ethyl-1-[(2R,3R)-2-(2,5-difluorophenyl)-2-hydroxy-3-[4-(4-cyanophenyl)thiazol-2-yl]butyl]-1H-[1,2,4]triazol-4-ium chloride hydrochloride]", "values": [{"measurement": "Conversion (half-life) to (2R,3R)-3-[4-(4-cyanophenyl)thiazol-2-yl)]-2-(2,5-difluorophenyl)-1-(1H-1,2,4-triazol-1-yl)-butan-2-ol (u) in plasma", "setting": "[3]", "result": 6, "unit": "min in human plasma"}]}
{"compound": "CNCC(=O)OCc1cc(F)ccc1N(C)C(=O)OC(C)[n+]1cnn(C[C@](O)(c2cc(F)ccc2F)[C@@H](C)c2nc(-c3ccc(C#N)cc3)cs2)c1.Cl.[I-]", "note": "(stereo partly drawn) [Example 7.4., 1-[[N-methyl-N-2-(methylamino)acetoxymethyl-4-fluoro-phenyl]carbamoyloxy]ethyl-1-[(2R,3R)-2-(2,5-difluorophenyl)-2-hydroxy-3-[4-(4-cyanophenyl)thiazol-2-yl]butyl]-1H-[1,2,4]triazol-4-ium iodide hydrochloride]", "values": [{"measurement": "Conversion (half-life) to (2R,3R)-3-[4-(4-cyanophenyl)thiazol-2-yl)]-2-(2,5-difluorophenyl)-1-(1H-1,2,4-triazol-1-yl)-butan-2-ol (u) in plasma", "setting": "[3]", "result": 2, "unit": "min in human plasma"}]}
{"compound": "CNCC(=O)OCc1ccc(Cl)cc1N(C)C(=O)OC(C)[n+]1cnn(C[C@](O)(c2cc(F)ccc2F)[C@@H](C)c2nc(-c3ccc(C#N)cc3)cs2)c1.Cl.[I-]", "note": "(stereo partly drawn) [Example 7.10., 1-[[N-methyl-N-2-(methylamino)acetoxymethyl-5-chloro-phenyl]carbamoyloxy]ethyl-1-[(2R,3R)-2-(2,5-difluorophenyl)-2-hydroxy-3-[4-(4-cyanophenyl)thiazol-2-yl]butyl]-1H-[1,2,4]triazol-4-ium iodide hydrochloride]", "values": [{"measurement": "Conversion (half-life) to (2R,3R)-3-[4-(4-cyanophenyl)thiazol-2-yl)]-2-(2,5-difluorophenyl)-1-(1H-1,2,4-triazol-1-yl)-butan-2-ol (u) in plasma", "setting": "[3]", "result": 3, "unit": "min in human plasma"}]}
{"compound": "CNCC(=O)OCc1c(F)cccc1N(C)C(=O)OC(C)[n+]1cnn(C[C@](O)(c2cc(F)ccc2F)[C@@H](C)c2nc(-c3ccc(C#N)cc3)cs2)c1.Cl.[Cl-]", "note": "(stereo partly drawn) [Example 7.13., 1-[[N-methyl-N-2-(methylamino)acetoxymethyl-3-fluoro-phenyl]carbamoyloxy]ethyl-1-[(2R,3R)-2-(2,5-difluorophenyl)-2-hydroxy-3-[4-(4-cyanophenyl)thiazol-2-yl]butyl]-1H-[1,2,4]triazol-4-ium chloride hydrochloride]", "values": [{"measurement": "Conversion (half-life) to (2R,3R)-3-[4-(4-cyanophenyl)thiazol-2-yl)]-2-(2,5-difluorophenyl)-1-(1H-1,2,4-triazol-1-yl)-butan-2-ol (u) in plasma", "setting": "[3]", "result": 2, "unit": "min in human plasma"}]}
{"compound": "OC(Cn1cncn1)(Cn1cncn1)c1ccc(F)cc1F", "note": "[Fluconazole, reference compound]", "values": [{"measurement": "ED50", "setting": "[2]; PO.", "result": 8.1, "unit": "µmol/kg"}, {"measurement": "ED50", "setting": "C. albicans CY3003; PO.", "result": 1, "unit": "µmol/kg"}, {"measurement": "ED50", "setting": "Candida albicans; Candida albicans, po, 336 h, p.o.", "result": 21.8, "unit": "µmol/kg"}, {"measurement": "ED50", "setting": "A. fumigatus CF1003; PO.", "result": 94, "unit": "µmol/kg"}, {"measurement": "ED50", "setting": "C. albicans CY1002; PO.", "result": 1.9, "unit": "µmol/kg"}, {"measurement": "ED50", "setting": "C. parapsilosis KULM219C; PO.", "result": 17, "unit": "µmol/kg"}, {"measurement": "ED50", "setting": "C. tropicalis CY5042; PO.", "result": 2, "unit": "µmol/kg"}]}
{"compound": "CCC(C)n1ncn(-c2ccc(N3CCN(c4ccc(OCC5COC(Cn6cncn6)(c6ccc(Cl)cc6Cl)O5)cc4)CC3)cc2)c1=O", "note": "(stereo not shown) [Itraconazole, 4-[4-[4-[4-[[2-(2,4-Dichlorophenyl)-2-(1H-1,2,4-triazol-1-ylmethyl)-1,3-dioxolan-4-yl]methoxy]phenyl]-1-piperazinyl]phenyl]-2,4-dihydro-2-(1-methylpropyl)-3H-[1,2,4]triazol-3-one, reference compound]", "values": [{"measurement": "ED50", "setting": "[2]; PO.", "result": 4.2, "unit": "µmol/kg"}, {"measurement": "ED50", "setting": "C. albicans CY3003; PO.", "result": 2.3, "unit": "µmol/kg"}, {"measurement": "ED50", "setting": "Aspergillus fumigatus; Aspergillus fumigatus, po, 336 h, p.o.", "result": 4.9, "unit": "µmol/kg"}, {"measurement": "ED50", "setting": "A. fumigatus CF1003; PO.", "result": 8.9, "unit": "µmol/kg"}, {"measurement": "ED50", "setting": "C. albicans CY1002; PO.", "result": 4.7, "unit": "µmol/kg"}, {"measurement": "ED50", "setting": "C. parapsilosis KULM219C; PO.", "result": 20, "unit": "µmol/kg"}, {"measurement": "ED50", "setting": "C. tropicalis CY5042; PO.", "result": 2, "unit": "µmol/kg"}]}
